Experimental data from the CheMixHub viscosity set.

Test: xn = mol fraction of the nth substance listed

[I-].[K+] + [2H]O[2H]
viscosity [mPa·s], 101 kPa
Conditions	x1 = 0.011	x1 = 0.021	x1 = 0.036	x1 = 0.053	x1 = 0.076	x1 = 0.121
298.15 K	1.036	0.97	0.942	0.936	0.972	1.098
308.15 K	0.829	0.794	0.776	0.783	0.823	0.942
318.15 K	0.692	0.667	0.662	0.68	0.715	0.827

CCCC(=O)OCC + c1ccccc1
Conditions	viscosity [mPa·s]
303.15 K, 101.33 kPa, x2 = 0.0662	0.591
303.15 K, 101.33 kPa, x2 = 0.2048	0.581
303.15 K, 101.33 kPa, x2 = 0.3293	0.571
303.15 K, 101.33 kPa, x2 = 0.4394	0.563
303.15 K, 101.33 kPa, x2 = 0.5452	0.559
303.15 K, 101.33 kPa, x2 = 0.5996	0.555
303.15 K, 101.33 kPa, x2 = 0.6452	0.554
303.15 K, 101.33 kPa, x2 = 0.7372	0.551
303.15 K, 101.33 kPa, x2 = 0.8161	0.551
303.15 K, 101.33 kPa, x2 = 0.8938	0.554
303.15 K, 101.33 kPa, x2 = 0.9658	0.555
308.15 K, 101.3 kPa, x1 = 0.0473	0.534
308.15 K, 101.3 kPa, x1 = 0.099	0.531
308.15 K, 101.3 kPa, x1 = 0.1937	0.528
308.15 K, 101.3 kPa, x1 = 0.2987	0.526
308.15 K, 101.3 kPa, x1 = 0.4059	0.527
308.15 K, 101.3 kPa, x1 = 0.4998	0.529
308.15 K, 101.3 kPa, x1 = 0.5753	0.533
308.15 K, 101.3 kPa, x1 = 0.7021	0.541
308.15 K, 101.3 kPa, x1 = 0.7978	0.55
308.15 K, 101.3 kPa, x1 = 0.903	0.562
308.15 K, 101.3 kPa, x1 = 0.9514	0.569
313.15 K, 101.33 kPa, x2 = 0.2126	0.539
313.15 K, 101.33 kPa, x2 = 0.4055	0.521
313.15 K, 101.33 kPa, x2 = 0.507	0.513
313.15 K, 101.33 kPa, x2 = 0.6031	0.506
313.15 K, 101.33 kPa, x2 = 0.8066	0.496
318.15 K, 101.3 kPa, x1 = 0.0473	0.47
318.15 K, 101.3 kPa, x1 = 0.099	0.471
318.15 K, 101.3 kPa, x1 = 0.1937	0.472
318.15 K, 101.3 kPa, x1 = 0.2987	0.476
318.15 K, 101.3 kPa, x1 = 0.4059	0.481
318.15 K, 101.3 kPa, x1 = 0.4998	0.486
318.15 K, 101.3 kPa, x1 = 0.5753	0.491
318.15 K, 101.3 kPa, x1 = 0.7021	0.502
318.15 K, 101.3 kPa, x1 = 0.7978	0.512
318.15 K, 101.3 kPa, x1 = 0.903	0.525
318.15 K, 101.3 kPa, x1 = 0.9514	0.531

CCCCN + c1ccccc1
viscosity [mPa·s], 101 kPa
Conditions	303.15 K	313.15 K
x1 = 0.009356	0.5633	0.4919
x1 = 0.01948	0.5628	0.4907
x1 = 0.02841	0.5622	0.4905
x1 = 0.03798	0.562	0.4893
x1 = 0.048	0.5618	0.4884
x1 = 0.0558	0.536	–
x1 = 0.05882	0.5617	0.4876
x1 = 0.0669	0.5608	0.4869
x1 = 0.07642	0.5598	0.4861
x1 = 0.08586	0.5588	0.4852
x1 = 0.1165	0.516	–
x1 = 0.2036	0.494	–
x1 = 0.2875	0.479	–
x1 = 0.382	0.465	–
x1 = 0.5164	0.453	–
x1 = 0.5676	0.451	–
x1 = 0.6631	0.448	–
x1 = 0.7656	0.447	–
x1 = 0.8602	0.446	–
x1 = 0.9278	0.444	–
x2 = 0.0974	0.4454	–
x2 = 0.1974	0.4466	–
x2 = 0.5007	0.4542	–
x2 = 0.6051	0.4738	–
x2 = 0.7995	0.5056	–
x2 = 0.9004	0.5322	–

CC[N+](=O)[O-] + c1ccccc1
293.15 K, 101.33 kPa
Conditions	viscosity [mPa·s]
x1 = 0.0901	0.628
x1 = 0.1956	0.611
x1 = 0.2856	0.602
x1 = 0.3897	0.595
x1 = 0.4893	0.594
x1 = 0.5827	0.597
x1 = 0.6952	0.608
x1 = 0.7869	0.622
x1 = 0.879	0.644
